Reference: patent US5015742A, “Synthesis and elucidation of azamitosene and iminoazamitosene” (Arizona Board of Regents, priority 1990, dated 1991)
“Also recorded” adds a separate entry of the source. Blank lines part the entries; values can stand above or below the compound they belong to.

Tests used:
[1] = tested on: cloned human ovarian cancer cell lines; test: Antitumor activity in cloned human ovarian cancer cell lines; assay type: cell-based
[2] = tested on: fresh human ovarian tumors; test: Antitumor activity in fresh human ovarian tumors; assay type: cell-based
fresh human colon tumors = test: Antitumor activity in fresh human colon tumors; assay type: cell-based
[3] = tested on: cloned human colon cancer cell lines; test: Antitumor activity in cloned human colon cancer cell lines; assay type: cell-based
[4] = pKa by spectrophotometric titration; assay type: physicochemical; settings: water, 1.0 m kcl
Procedure: pKa constants were determined by spectrophotometric titration in μ=1.0 (KCl) aerobic aqueous solvent at 30°±0.2° C. with a Cary 15 outfitted with a titration cell. Acid dissociations from hydroquinones in strong base were measured under an argon atmosphere with Thunberg cuvettes. Details of the methodoloqy employed are found in a previous publication.

[5] = Aerobic oxidation (oxygen reactivity) of reduced species in aqueous buffer; assay type: physicochemical
Procedure: The oxygen reactivity of 19 and 20 was studied in aerobic buffers (μ=1.0, KCl) at 30° C. Both of these species are converted to the corresponding oxidized analogues, 2a and 1a, by first-order processes. Isolation studies and UV-visible spectra of completed reactions confirmed the formation of both analogues. As expected from the relative reduction potentials, the oxidation of 19 is slow enough to be studied up to pH=11 whereas the oxidation of 20 occurs at stopped-flow rates much above neutrality.
The profile for the oxidation of 19 is consistent with oxidation of both the neutral species (19) and the monoprotonated species (19H^+), see Scheme 5, below. [drawing 11] The rate law for the mechanism in Scheme 5 is found in Equation 5. […] The solid curve of Plot B in FIG. 3 was computer generated with equation 5 using the values of the constants shown in Scheme 5. Consistent with the proposed mechanism, the kinetically-determined value of Ka is nearly the same as the value determined spectrophotometrically (9.44, entry 11 of Table I). The greater oxygen reactivity of 19, compared to 19H^+, is consistent with the decreasing Em values (i.e., decreasing stability of the reduced species) observed in the Nernst Fit (Plot B, FIG. 2) at pH values>6.
(§1) Kinetic Studies of Hydrolysis. The hydrolytic studies of 2a and the reoxidation studies of 19 and 20 were carried out in aerobic aqueous buffer at 30.0°±0.2° C. A dimethyl sulfoxide stock of the compound to be studied was prepared fresh and 50 μl of this stock was added to 2.95 mL of buffer. In the cases of 19 and 20, the dimethyl sulfoxide stock was kept under a blanket of argon. The absorbance vs time data were obtained on a Perkin-Elmer 559 or a Lambda-3 UV-vis spectrophotometer and fit to a first-order rate law.

[6] = Kinetics of hydrolysis and syn/anti isomerization in aqueous buffer; assay type: physicochemical; settings: for pKa: aqueous buffer
Source text: Iminoquinone Fate in Aqueous Buffers. […] Outlined in Scheme 4 below, are the pertinent equilibria and hydrolytic reactions of 2a in aqueous buffer. Above pH 7, the predominate reaction is equilibrium formation of a syn/anti mixture of 2a by general acid/base catalyzed processes. Much below pH 7, the predominate reaction is acid-catalyzed hydrolysis of 2a to the corresponding quinone 1a.
The studies which led to the mechanism outlined in Scheme 4 will now be described. Both hydrolysis and the equilibrium isomerization of pure syn 2a or pure anti 2a are associated with an absorbance change at 320 nm. Plots of absorbance vs time obeyed a first-order rate law over the entire pH range studied. The kobsd values were dependent on the concentration of the buffers employed to hold pH over the range of pH=3 to 9. Lyate-dependent values of kobsd (klyate) were obtained by measuring kobsd values over a 10-fold range of buffer concentration at constant pH and then extrapolating to the klyate value at zero buffer concentration.
The rate law for the reaction of pure syn 2a, based on the mechanism shown in Scheme 4 below, is provided in Equation 1: [formula] wherein: k1, k-1, k2, k3, Ka4 and Ka5 are constants found in Scheme 4 and aH is the proton activity determined with a pH electrode. The first term of equation 1 pertains to the hydrolysis of 2aH^2+ under the conditions aH <Ka5, the second term pertains to hydrolysis of 2aH and third term pertains to the syn/anti equilibration. […] Consistent with the postulated mechanism, the kinetically-obtained value of pKa4 approximates the value obtained by spectrophotometric titration (2.6±0.3).
as §1

[7] = Two-electron reduction potentials by cyclic voltammetry and Nernst fit
Procedure: Quinone 1a and iminoquinone 2a two-electron reduction potentials were determined in anaerobic aqueous buffers (μ=1, NaClO4) at 25° C. over the pH range -1 to 10 employing conventional cyclic voltammetry. The working electrode was a graphite mull, the auxillary electrode was platinum, and the reference couple was Ag/AgCl.
The pKa values, with error limits, were determined. spectrophotometrically.
The determination of Em values was carried out with a BAS 27 voltammograph. Measurements were carried out in μ=1.0 (NaClO4) aqueous buffer at 25°-26° C. under an atmosphere of argon with a BAS Ag/AgCl gel electrode as reference. […] The midpoint potential Em was determined from the average of the anodic (Ep,a) and cathodic (Ep,c) potentials.
For each of the redox couples, 1a/20 and 2a/19, >20 Em determinations were made over the pH range studied. For each Em value of a couple, and Eo value was calculated from the Nernst equation substituted with the acid dissociation constants in Table I and the proton activity determined with a pH meter. The average of all Eo determinations was then substituted into the Nernst equation, with which the solid curve for the couple was generated.

[8] = comparison or calibration value; cited from earlier work
[9] = syn/anti isomerization equilibrium (product study, thermodynamic cycles, NMR); assay type: physicochemical; settings: for K for syn/anti isomerization: aqueous buffer
Procedure: Below pH 7, the preparative reaction of pure syn 2a afforded a mixture of isomers; [syn 2a]/[anti 2a]=0.7 by ^1 H NMR. [drawing 5]
The K value (~1) for syn/anti isomerization of 2a in aqueous buffer was assessed from […] thermodynamic cycles and from a product study. The results of the product study indicate K=0.7. The two thermodynamic cycles shown in Scheme 4 indicate K=1 to 2. These thermodynamic cycles were constructed by considering that protonation of syn/anti 2a provides the same cationic species 2aH^+ and that acid dissociation from syn/anti 2a probably provides the same anionic species 2aH^-.
The thermoneutral syn/anti isomerization in aqueous buffer requires that the imino proton of anti 2a hydrogen bond to the nitrogen of the enolized acetamido group.
Product Isolation of syn 2a Reaction at pH 8. To a solution of 15 mg (0.058 mmol) of syn 2a in 1 mL of dimethyl sulfoxide was added 4 mL of pH 8 phosphate buffer. The reaction mixture was stirred at room temperature for 48 hours and then diluted with 10 mL of water and extracted 3× with 20 mL portions of chloroform. Concentration of the dried extracts (sodium sulfate) afforded 12 mg (80%) of a mixture of isomers: [syn/anti]=0.7 by ^1 H NMR.

[10] = N(4)-protonated species, 30° C., μ = 1.0 (KCl)
[11] = amide proton, 30° C., μ = 1.0 (KCl)
[12] = buffer-catalyzed syn/anti isomerization

Compound: CC1=C(N2CC2)C(=O)c2nc3n(c2C1=O)CCC3OC(N)=O (centres unmarked) [1d, 6-N-Aziridinyl-7-methyl-2,3-dihydro-1H-pyrrolo [1,2-a]benzimidazole-5,8-dione-3-Carbamate]
antitumor activity [1]: potent antitumor agents
antitumor activity [2]: potent antitumor agents
antitumor activity (fresh human colon tumors): potent antitumor agents
antitumor activity [3]: potent antitumor agents

pKa ([4]; 5-OH of hydroquinone, 30° C., μ = 1.0 (KCl)): 11.1
pKa ([4]; 8-OH of hydroquinone (20^- to 20^2-), 30° C., μ = 1.0 (KCl), approximated): > 14
pKa [4, 10]: 6.02 ± 0.2
pKa [4, 11]: > 14
oxidation rate above pH 7.5 ([5]; above pH 7.5): too fast to measure
oxidation rate of 20^- ([5]; assuming rate-determining oxidation of 20^-): 1566 s⁻¹
Compound: CC(=O)Nc1c(C)c(O)c2c(nc3n2CCC3)c1O [compound 20]

pKa [4, 10]: 1.54 ± 0.06
pKa [4, 11]: 11.3 ± 0.13
hydrolytic stability, entire pH range studied ([6]; aqueous solution, pH range -1 to 10): hydrolytically stable
Eo (reduction potential at pH=0) ([7]; couple 1a/20, Nernst fit): 612 mV (NHE)
Compound: CC(=O)NC1=C(C)C(=O)c2c(nc3n2CCC3)C1=O [1a, 6-Acetamido-7-methyl-2,3-dihydro-1H-pyrrolo [1,2-a]benzimidazole-5,8-dione]

pKa [4, 10]: 3.67 ± 0.16
pKa ([4]; dissociation of hydroxyl, amide and amine protons: 19^2- to 19^3-, approximated): > 15
pKa ([4]; dissociation of hydroxyl, amide and amine protons: 19^- to 19^2-, approximated): > 15
pKa ([4]; dissociation of hydroxyl, amide and amine protons: 19 to 19^-, approximated): > 15
pKa ([4]; protonated 5-amino group (19H^+), 30° C., μ = 1.0 (KCl)): 9.44
reoxidation rate relative to 20 ([5]; physiological pH): two orders of magnitude slower
fold slower oxidation than 20 ([5]; physiological pH (7.4)): about 100 ×
stability of reduced species in acid ([7]; acid solution): acid-stable
Compound: CC(=O)Nc1c(C)c(O)c2c(nc3n2CCC3)c1N [compound 19, 6-Acetamido-5-amino-8-hydroxy-7-methyl-2,3-dihydro-1H-pyrrolo[1,2-a]benzimidazole]

Compound: N#CC1=C(C#N)C(=O)C(Cl)=C(Cl)C1=O [dichlorodicyanoquinone (DDQ), dichlorodicyanoquinone]
Eo [8]: 946 mV, NHE

K for syn/anti equilibration ([9]; dimethyl sulfoxide-d6): 15
[syn]/[anti] ratio ([9]; preparative reaction of pure syn 2a, ^1 H NMR, pH 8 phosphate buffer, 48 hours): 0.7
completed hydrolysis, product by UV-visible spectra ([6]; pH 0 to pH 6): quantitative formation of 1a
Compound: CC(=O)NC1=C(C)C(=O)c2c(nc3n2CCC3)C1=N [syn 2a, 6-Acetamido-5-imino-7-methyl-2,3-dihydro-1H-pyrrolo[1,2-a]benzimidazol-8-one]

hydrolytic stability below pH 6 [6]: extremely slow
Compound: CC(=O)NC1=C(C)C(=O)c2c(nc3n2CCC3OC(C)=O)C1=N (racemic) [2b, syn/anti 6-Acetamido-5-imino-7-methyl-2,3-dihydro-1H-pyrrolo[1,2-a]benzimidazol-8-one-3-Acetate]

Compound: CC(=O)OC1CCn2c1nc1c2C(=O)C(C)=C(N2CC2)C1=O (centres unmarked) [1c, 6-(N-aziridinyl)-7-methyl-2,3-dihydro-1H-pyrrolo [1,2-a]benzimidazole 5,8-dione-3-Acetate]
antitumor activity [1]: potent antitumor agents
antitumor activity [2]: potent antitumor agents
antitumor activity (fresh human colon tumors): potent antitumor agents
antitumor activity [3]: potent antitumor agents

pKa [4, 10]: < 0
pKa [4, 11]: 11.24 ± 0.01
pKa ([4]; protonated imino group (2aH^+), spectrophotometric, 30° C., μ = 1.0 (KCl)): 2.6 ± 0.3
K for syn/anti isomerization ([9]; overall): ~ 1
K for syn/anti isomerization ([9]; product study): 0.7
pKa ([6]; acid dissociation of 2aH^+ (protonated imine), pH profile FIG. 1, read-out: pKa): ~2.5
pKa ([6]; acid dissociation of diprotonated 2a, pH profile FIG. 1, read-out: pKa): < 0
pKa ([6]; kinetically obtained, fit of equation 1, 30° C., read-out: pKa4): 3.4
hydrolytic stability below pH 6 [6]: extremely slow
k(acetate) [6, 12]: 0.0045 M⁻¹ s⁻¹
k(dibasic phosphate) [6, 12]: 0.000171 M⁻¹ s⁻¹
k(monobasic phosphate) [6, 12]: 0.000421 M⁻¹ s⁻¹
kga for acetic acid ([6]; general acid catalyzed hydrolysis, pH 3.5 to 6): 0.003 M⁻¹ s⁻¹
k3/Ka5 ([6]; hydrolysis of diprotonated 2a, fit of equation 1, 30° C.): 0.045 M⁻¹ s⁻¹
k2 (rate of water addition to 2aH^+) ([6]; hydrolysis of monoprotonated 2a, 30° C.): 0.048 s⁻¹
hydrolytic stability at pH values ≥7 ([6]; pH ≥7): hydrolytically stable
hydrolysis rate at pH 7.0 ([6]; pH=7.0, worked out from pKa and k2): 1.0×10^-6 s^-1
k1 + k-1 ([6]; syn/anti equilibration, lyate term, above pH 7, 30° C.): 1.03e-05 s⁻¹
Eo (reduction potential at pH=0) ([7]; couple 2a/19, Nernst fit): 1.11 V (NHE)
E values of syn and anti isomers ([7]; cyclic voltammetry, syn versus anti): identical E values for both isomers
reduction potential versus quinone ([7]; iminoquinone compared with quinone analogue): much higher reduction potentials
Compound: CC(=O)NC1=C(C)C(=O)c2c(nc3n2CCC3)C1=N [2a, syn/anti 6-Acetamido-5-imino-7-methyl-2,3-dihydro-1H-pyrrolo[1,2-a]benzimidazol-8-one]
hydrolytic stability much below pH 6 / in acid ([6]; acid, much below pH 6): rapidly hydrolyses; also recorded: rapidly hydrolyzed
